# Data from patent US20230132823A1, “BI-FUNCTIONAL COMPOUNDS AND METHODS FOR TARGETED UBIQUITINATION OF ANDROGEN RECEPTOR” (MONTELINO THERAPEUTICS, INC., priority 2020, published 2023).
# Where a SMILES comes first, the peptide text is derived from it. [ ]: non-standard residue; d: D form. The star is where a group is joined. X3 = O=C(NCCCCCCN*)c1cccc2sc(N3CCOCC3)nc12; Dip = N[C@H](C(=O)O)C(c1ccccc1)c1ccccc1; Chg = N[C@H](C(=O)O)C1CCCCC1; NMeA = CN[C@@H](C)C(=O)O
# System: 22Rv1
# Assay: 22Rv1 cell proliferation assay (Experimental Example 1, cell count)
# Assay type: cell-based
# Conditions: Homo sapiens, 22Rv1, read-out: 22Rv1 cell count decrease at 10 μM for 48 hours
# Description: The human prostate cancer cell line, 22Rv1 has been reported to express a high level of AR-V7. […] Standard culture media was RPMI-1640 supplemented with 10% fetal bovine serum. The test compound initially was dissolved in DMSO at 50 mM. This stock solution was then diluted as needed for the indicated concentrations. […]
# In the Table: (+)—the cell count decreased between 0 and 20%; (++)—the cell count decreased […]; (+++)—the cell count decreased by more than 50%.
row,Compound,inhibition at 10 µM [%]
1,"CN[C@@H](C)C(=O)N[C@H](C(=O)N1CCC[C@H]1C(=O)N[C@H](C(=O)NCCCCCCNC(=O)c1cccc2sc(N3CCOCC3)nc12)C(c1ccccc1)c1ccccc1)C1CCCCC1 [Example 31, N-(6-((S)-2-((S)-1-((S)-2-cyclohexyl-2-((S)-2-(methylamino)propanamido)acetyl)pyrrolidine-2-carboxamido)-3,3-diphenylpropanamido)hexyl)-2-morpholinobenzo[d]thiazole-4-carboxamide] (H-[NMeA][Chg]P[Dip]-X3)",> 50

# Same assay, conditions: Homo sapiens, 22Rv1, read-out: 22Rv1 cell count decrease at 10 μM for 48 hours; 10 μM (method: four days); read-out: 22Rv1 cell count decrease at 10 μM
row,Compound,inhibition at 10 µM [%]
1,"O=C(COc1cccc2c1C(=O)N(C1CCC(=O)NC1=O)C2=O)NCCCCCCNC(=O)COc1c(-c2csc(N3CCOCC3)n2)ccc(F)c1F (centres unmarked) [Example 7, 2-(2,3-difluoro-6-(2-morpholinothiazol-4-yl)phenoxy)-N-(6-(2-((2-(2,6-dioxopiperidin-3-yl)-1,3-dioxoisoindolin-4-yl)oxy)acetamido)hexyl)acetamide]",0 to 20
2,"O=C(COc1cccc2c1C(=O)N(C1CCC(=O)NC1=O)C2=O)NCCOCCOCCOCCOCCOc1c(-c2csc(N3CCOCC3)n2)ccc(F)c1F (centres unmarked) [Example 14, N-(14-(2,3-difluoro-6-(2-morpholinothiazol-4-yl)phenoxy)-3,6,9,12-tetraoxatetradecyl)-2-((2-(2,6-dioxopiperidin-3-yl)-1,3-dioxoisoindolin-4-yl)oxy)acetamide]",0 to 20
3,"O=C(COc1c(-c2csc(N3CCOCC3)n2)ccc(F)c1F)NCCCCCCCCNc1cccc2c1C(=O)N(C1CCC(=O)NC1=O)C2=O (centres unmarked) [Example 2, 2-(2,3-difluoro-6-(2-morpholinothiazol-4-yl)phenoxy)-N-(8-((2-(2,6-dioxopiperidin-3-yl)-1,3-dioxoisoindolin-4-yl)amino)octyl)acetamide]",0 to 20
4,"O=C(COc1cccc2c1C(=O)N(C1CCC(=O)NC1=O)C2=O)NCCCCCCCCCCNC(=O)COc1c(-c2csc(N3CCOCC3)n2)ccc(F)c1F (centres unmarked) [Example 9, 2-(2,3-difluoro-6-(2-morpholinothiazol-4-yl)phenoxy)-N-(10-(2-((2-(2,6-dioxopiperidin-3-yl)-1,3-dioxoisoindolin-4-yl)oxy)acetamido)decyl)acetamide]",0 to 20
5,"Cc1ncsc1-c1ccc([C@H](C)NC(=O)[C@@H]2C[C@@H](O)CN2C(=O)[C@@H](NC(=O)CCCCCCNC(=O)COc2c(-c3csc(N4CCOCC4)n3)ccc(F)c2F)C(C)(C)C)cc1 [Example 18, (2S,4R)-1-((S)-2-(7-(2-(2,3-difluoro-6-(2-morpholinothiazol-4-yl)phenoxy)acetamido)heptanamido)-3,3-dimethylbutanoyl)-4-hydroxy-N-((S)-1-(4-(4-methylthiazol-5-yl)phenyl)ethyl)pyrrolidine-2-carboxamide]",< 50
6,"O=C(COc1c(-c2csc(N3CCOCC3)n2)ccc(F)c1F)NCCOCCOCCOCCNc1cccc2c1C(=O)N(C1CCC(=O)NC1=O)C2=O (centres unmarked) [Example 5, 2-(2,3-difluoro-6-(2-morpholinothiazol-4-yl)phenoxy)-N-(2-(2-(2-(2-((2-(2,6-dioxopiperidin-3-yl)-1,3-dioxoisoindolin-4-yl)amino)ethoxy)ethoxy)ethoxy)ethyl)acetamide]",0 to 20
7,"Cc1ncsc1-c1ccc([C@H](C)NC(=O)[C@@H]2C[C@@H](O)CN2C(=O)[C@@H](NC(=O)CCCCCNC(=O)COc2c(-c3csc(N4CCOCC4)n3)ccc(F)c2F)C(C)(C)C)cc1 [Example 17, (2S,4R)-1-((S)-2-(6-(2-(2,3-difluoro-6-(2-morpholinothiazol-4-yl)phenoxy)acetamido)hexanamido)-3,3-dimethylbutanoyl)-4-hydroxy-N-((S)-1-(4-(4-methylthiazol-5-yl)phenyl)ethyl)pyrrolidine-2-carboxamide]",< 50
8,"COc1cc(C(=O)NCCCCCCNC(=O)COc2c(-c3csc(N4CCOCC4)n3)ccc(F)c2F)ccc1NC(=O)[C@@H]1N[C@@H](CC(C)(C)C)[C@](C#N)(c2ccc(Cl)cc2F)[C@H]1c1cccc(Cl)c1F [Example 29, (2R,3S,4R,5S)-3-(3-chloro-2-fluorophenyl)-4-(4-chloro-2-fluorophenyl)-4-cyano-N-(4-((6-(2-(2,3-difluoro-6-(2-morpholinothiazol-4-yl)phenoxy)acetamido)hexyl)carbamoyl)-2-methoxyphenyl)-5-neopentylpyrrolidine-2-carboxamide]",< 50
9,"O=C1CCC(N2C(=O)c3cccc(NCCCCCCNC(=O)c4nc(Br)n(-c5csc(N6CCOCC6)n5)c4Br)c3C2=O)C(=O)N1 (centres unmarked) [Example 33, 2,5-dibromo-N-(6-((2-(2,6-dioxopiperidin-3-yl)-1,3-dioxoisoindolin-4-yl)amino)hexyl)-1-(2-morpholinothiazol-4-yl)-1H-imidazole-4-carboxamide]",0 to 20
10,"Cc1ncsc1-c1ccc([C@H](CC(=O)NCCCCCCNC(=O)COc2c(-c3csc(N4CCOCC4)n3)ccc(F)c2F)NC(=O)[C@@H]2C[C@@H](O)CN2C(=O)[C@@H](NC(=O)C2(F)CC2)C(C)(C)C)cc1 [Example 23, (2S,4R)-N-((S)-3-((6-(2-(2,3-difluoro-6-(2-morpholinothiazol-4-yl)phenoxy)acetamido)hexyl)amino)-1-(4-(4-methylthiazol-5-yl)phenyl)-3-oxopropyl)-1-((S)-2-(1-fluorocyclopropane-1-carboxamido)-3,3-dimethylbutanoyl)-4-hydroxypyrrolidine-2-carboxamide]",0 to 20
11,"O=C(COc1cccc2c1C(=O)N(C1CCC(=O)NC1=O)C2=O)NCCOCCOCCNC(=O)COc1c(-c2csc(N3CCOCC3)n2)ccc(F)c1F (centres unmarked) [Example 10, 2-(2,3-difluoro-6-(2-morpholinothiazol-4-yl)phenoxy)-N-(2-(2-(2-(2-((2-(2,6-dioxopiperidin-3-yl)-1,3-dioxoisoindolin-4-yl)oxy)acetamido)ethoxy)ethoxy)ethyl)acetamide]",0 to 20
12,"O=C(COc1cccc2c1C(=O)N(C1CCC(=O)NC1=O)C2=O)NCCCCCCCCNC(=O)COc1c(-c2csc(N3CCOCC3)n2)ccc(F)c1F (centres unmarked) [Example 8, 2-(2,3-difluoro-6-(2-morpholinothiazol-4-yl)phenoxy)-N-(8-(2-((2-(2,6-dioxopiperidin-3-yl)-1,3-dioxoisoindolin-4-yl)oxy)acetamido)octyl)acetamide]",0 to 20
13,"Cc1ncsc1-c1ccc([C@H](CC(=O)NCCCCNC(=O)COc2c(-c3csc(N4CCOCC4)n3)ccc(F)c2F)NC(=O)[C@@H]2C[C@@H](O)CN2C(=O)[C@@H](NC(=O)C2(F)CC2)C(C)(C)C)cc1 [Example 22, (2S,4R)-N-((S)-3-((4-(2-(2,3-difluoro-6-(2-morpholinothiazol-4-yl)phenoxy)acetamido)butyl)amino)-1-(4-(4-methylthiazol-5-yl)phenyl)-3-oxopropyl)-1-((S)-2-(1-fluorocyclopropane-1-carboxamido)-3,3-dimethylbutanoyl)-4-hydroxypyrrolidine-2-carboxamide]",0 to 20
14,"Cc1ncsc1-c1ccc([C@H](C)NC(=O)[C@@H]2C[C@@H](O)CN2C(=O)[C@@H](NC(=O)COCCCNC(=O)COc2c(-c3csc(N4CCOCC4)n3)ccc(F)c2F)C(C)(C)C)cc1 [Example 19, (2S,4R)-1-((S)-2-(2-(3-(2-(2,3-difluoro-6-(2-morpholinothiazol-4-yl)phenoxy)acetamido)propoxy)acetamido)-3,3-dimethylbutanoyl)-4-hydroxy-N-((S)-1-(4-(4-methylthiazol-5-yl)phenyl)ethyl)pyrrolidine-2-carboxamide]",< 50
15,"COc1cc(C(=O)NCCCCNC(=O)COc2c(-c3csc(N4CCOCC4)n3)ccc(F)c2F)ccc1NC(=O)[C@@H]1N[C@@H](CC(C)(C)C)[C@](C#N)(c2ccc(Cl)cc2F)[C@H]1c1cccc(Cl)c1F [Example 28, (2R,3S,4R,5S)-3-(3-chloro-2-fluorophenyl)-4-(4-chloro-2-fluorophenyl)-4-cyano-N-(4-((4-(2-(2,3-difluoro-6-(2-morpholinothiazol-4-yl)phenoxy)acetamido)butyl)carbamoyl)-2-methoxyphenyl)-5-neopentylpyrrolidine-2-carboxamide]",> 50
16,"O=C(COc1c(-c2csc(N3CCOCC3)n2)ccc(F)c1F)NCCOCCOCCNc1cccc2c1C(=O)N(C1CCC(=O)NC1=O)C2=O (centres unmarked) [Example 4, 2-(2,3-difluoro-6-(2-morpholinothiazol-4-yl)phenoxy)-N-(2-(2-(2-((2-(2,6-dioxopiperidin-3-yl)-1,3-dioxoisoindolin-4-yl)amino)ethoxy)ethoxy)ethyl)acetamide]",0 to 20
17,"Cc1ncsc1-c1ccc([C@H](C)NC(=O)[C@@H]2C[C@@H](O)CN2C(=O)[C@@H](NC(=O)COCCOCCNC(=O)COc2c(-c3csc(N4CCOCC4)n3)ccc(F)c2F)C(C)(C)C)cc1 [Example 20, (2S,4R)-1-((S)-2-(tert-butyl)-14-(2,3-difluoro-6-(2-morpholinothiazol-4-yl)phenoxy)-4,13-dioxo-6,9-dioxa-3,12-diazatetradecanoyl)-4-hydroxy-N-((S)-1-(4-(4-methylthiazol-5-yl)phenyl)ethyl)pyrrolidine-2-carboxamide]",< 50
18,"O=C1CCC(N2C(=O)c3cccc(NCCOCCOCCOc4c(-c5csc(N6CCOCC6)n5)ccc(F)c4F)c3C2=O)C(=O)N1 (centres unmarked) [Example 12, 4-((2-(2-(2-(2,3-difluoro-6-(2-morpholinothiazol-4-yl)phenoxy)ethoxy)ethoxy)ethyl)amino)-2-(2,6-dioxopiperidin-3-yl)isoindoline-1,3-dione]",0 to 20
19,"O=C(COc1cccc2c1C(=O)N(C1CCC(=O)NC1=O)C2=O)NCCOCCOCCOCCNC(=O)COc1c(-c2csc(N3CCOCC3)n2)ccc(F)c1F (centres unmarked) [Example 11, 2-(2,3-difluoro-6-(2-morpholinothiazol-4-yl)phenoxy)-N-(1-((2-(2,6-dioxopiperidin-3-yl)-1,3-dioxoisoindolin-4-yl)oxy)-2-oxo-6,9,12-trioxa-3-azatetradecan-14-yl)acetamide]",0 to 20
